Test results reported in US5744449A (priority 1996, dated 1998).
Ends that are not written are not given here.

Experiments:
N. n. kaouthia venom = conditions: in vivo
C. atrox venom = conditions: in vivo
O. s. scutellatus venom = conditions: in vivo
[1] = system: venoms and their lethal toxins; set-up: species or system mice; conditions: mouse
Sea snake venom = conditions: in vivo
V. russellii venom = conditions: in vivo

LKAMDPTPPLWIKTE [LTNF-15]
0/3: Death/Survival Group II (LTNF Immediately) (N. n. kaouthia venom) | Death/Survival Group III (LTNF 1/2 hr before) (N. n. kaouthia venom) | Death/Survival Group II (LTNF Immediately) (C. atrox venom) | Death/Survival Group III (LTNF 1/2 hr before) (C. atrox venom) | Death/Survival Group II (LTNF Immediately) (O. s. scutellatus venom) | Death/Survival Group III (LTNF 1/2 hr before) (O. s. scutellatus venom) | Death/Survival Group II (LTNF Immediately) (Sea snake venom) | Death/Survival Group III (LTNF 1/2 hr before) (Sea snake venom) | Death/Survival Group II (LTNF Immediately) (V. russellii venom) | Death/Survival Group III (LTNF 1/2 hr before) (V. russellii venom)
neutralized in vivo: neutralization of venoms and their lethal toxins in vivo [1]
